According to US9079895B2, “Morpholino compounds, uses and methods” (University of Dundee, priority 2012, dated 2015):

Legend:
Conditions in all cases: average of at least two experiments
5HT3 receptor = 5HT3 receptor (Homo sapiens (Human), UniProt P46098); assay: Secondary radioligand binding assay, 5HT3; parameters: key: “—” indicates that a binding interaction was not detected;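 further: radioligand competition binding on membranes from transfected cell lines, 1.5 h incubation at room temperature, filter-retained radioactivity measured by liquid scintillation counting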
Method: (§9) Assay Buffer: Standard Binding Buffer (50 mM Tris-HCl, 10 mM MgCl2, 1 mM EDTA, pH 7.4)
(§10) Membrane Fraction Source: Transiently or stably transfected cell lines (e.g., HEK293, COS, CHO, NIH3T3)

[1] = molecular target: Alpha1B adrenergic receptor (Homo sapiens (Human), UniProt P35368); assay: Secondary radioligand binding assay, Alpha1B; parameters: key to Ki Alpha1B: “—” indicates that a binding interaction was not detected
Alpha1B adrenergic receptor, sequence (P35368 whole entry): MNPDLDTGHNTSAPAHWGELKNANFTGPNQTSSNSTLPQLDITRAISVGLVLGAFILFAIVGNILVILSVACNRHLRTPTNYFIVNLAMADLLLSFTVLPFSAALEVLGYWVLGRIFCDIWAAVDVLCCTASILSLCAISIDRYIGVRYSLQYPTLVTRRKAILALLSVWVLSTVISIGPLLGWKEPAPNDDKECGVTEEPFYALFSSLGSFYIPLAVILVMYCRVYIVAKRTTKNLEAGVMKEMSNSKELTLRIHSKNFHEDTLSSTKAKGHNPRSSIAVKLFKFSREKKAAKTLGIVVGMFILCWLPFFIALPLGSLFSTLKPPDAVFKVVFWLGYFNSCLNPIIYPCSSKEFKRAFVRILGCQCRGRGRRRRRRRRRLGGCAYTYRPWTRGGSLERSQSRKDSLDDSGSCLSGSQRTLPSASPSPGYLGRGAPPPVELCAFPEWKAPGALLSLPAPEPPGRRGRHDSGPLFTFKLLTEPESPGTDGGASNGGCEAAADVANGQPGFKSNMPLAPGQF
Description: (§1) 1. Secondary Radioligand Binding Assays The detailed experimental protocols for the radioligand and functional receptor assays are available on the NIMH PDSP website at http://pdsp.med.unc.edu/UNC-CH %20Protocol %20Book.pdf. Raw data (dpm) representing total radioligand binding (i.e. specific+non-specific binding) are plotted as a function of the logarithm of the molar concentration of the competitor (i.e. test or reference compound). […] C. Adrenergic Receptors: α1A, α1B, α2A, α2B, α2C, β1, β2, β3 Assay Buffers: For α1 receptors, α1 Binding Buffer (20 mM Tris-HCl, 145 mM NaCl, pH 7.4); for α2 receptors, α2 Binding Buffer (50 mM Tris-HCl, 5 mM MgCl2, pH 7.7); for β receptors, β Binding Buffer (50 mM Tris-HCl, 3 mM MnCl2, pH 7.7) Membrane Fraction Source: Transiently or stably transfected cell lines (e.g. HEK293, COS, CHO, NIH3T3) Protocol adapted from Arango et al. […] (1990), Gen. Psychiatry, 47: 1038-1047. The method is carried out in the manner described for the serotonin receptor assay above, except where described below. Eleven dilutions (5× assay concentration) of the test and reference (see Table 20) compounds are prepared in the appropriate buffer by serial dilution, as previously described. Radioligand is diluted to five times the assay concentration (see Table 21) in the appropriate buffer. […] Four rapid 500-μl washes are performed with chilled distilled water (for α1 and β receptors) or 0.1% polyethyleneimine (for α2 receptors) to reduce non-specific binding. Filters are placed in 6 ml scintillation tubes and allowed to dry overnight and the samples are treated to obtain data as described above. [table]

5HT6 receptor = 5HT6 receptor (Homo sapiens (Human), UniProt P50406); assay: Secondary radioligand binding assay, 5HT6; parameters: key: “—” indicates that a binding interaction was not detected;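 further: competition displacement of radioligand from membranes of transfected cell lines expressing the receptor, 1.5 h at room temperature, bound radioactivity counted by scintillation after filtration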
5HT6 receptor, sequence (P50406 whole entry): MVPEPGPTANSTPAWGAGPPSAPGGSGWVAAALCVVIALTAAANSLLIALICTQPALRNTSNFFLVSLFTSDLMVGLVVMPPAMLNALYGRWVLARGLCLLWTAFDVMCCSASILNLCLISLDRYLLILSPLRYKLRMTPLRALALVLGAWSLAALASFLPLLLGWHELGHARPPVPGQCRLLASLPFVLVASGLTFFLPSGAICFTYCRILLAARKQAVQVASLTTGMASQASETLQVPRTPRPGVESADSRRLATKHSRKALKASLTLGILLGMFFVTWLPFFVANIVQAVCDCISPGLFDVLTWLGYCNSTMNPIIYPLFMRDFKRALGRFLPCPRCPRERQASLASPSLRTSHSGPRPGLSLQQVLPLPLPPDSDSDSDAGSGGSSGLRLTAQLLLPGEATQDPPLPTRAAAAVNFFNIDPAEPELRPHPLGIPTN
Method: as §9, §10

5HT1d receptor = 5HT1d receptor (Homo sapiens (Human), UniProt P28221); assay: Secondary radioligand binding assay, 5HT1d; parameters: key to Ki 5HT1d: “—” indicates that a binding interaction was not detected;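 further: competition binding against a radioligand on membranes from transfected cell lines, 1.5 h at room temperature, filter-retained radioactivity counted by liquid scintillation, total binding plotted versus log competitor concentration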
5HT1d receptor, sequence (P28221 whole entry): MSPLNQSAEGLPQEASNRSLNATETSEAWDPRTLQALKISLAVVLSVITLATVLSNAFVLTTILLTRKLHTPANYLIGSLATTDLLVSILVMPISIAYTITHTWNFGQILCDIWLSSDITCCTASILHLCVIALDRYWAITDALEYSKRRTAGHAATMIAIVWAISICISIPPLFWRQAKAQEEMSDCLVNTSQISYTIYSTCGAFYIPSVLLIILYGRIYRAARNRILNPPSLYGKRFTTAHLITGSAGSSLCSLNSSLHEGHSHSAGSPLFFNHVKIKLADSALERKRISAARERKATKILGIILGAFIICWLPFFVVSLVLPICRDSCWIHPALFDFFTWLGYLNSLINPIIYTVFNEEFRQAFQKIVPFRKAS
Method: as §9, §10

dopamine D5 receptor = dopamine D5 receptor (Homo sapiens (Human), UniProt P21918); assay: Secondary radioligand binding assay, D5; parameters: key to Ki D5: “—” indicates that a binding interaction was not detected
dopamine D5 receptor, sequence (P21918 whole entry): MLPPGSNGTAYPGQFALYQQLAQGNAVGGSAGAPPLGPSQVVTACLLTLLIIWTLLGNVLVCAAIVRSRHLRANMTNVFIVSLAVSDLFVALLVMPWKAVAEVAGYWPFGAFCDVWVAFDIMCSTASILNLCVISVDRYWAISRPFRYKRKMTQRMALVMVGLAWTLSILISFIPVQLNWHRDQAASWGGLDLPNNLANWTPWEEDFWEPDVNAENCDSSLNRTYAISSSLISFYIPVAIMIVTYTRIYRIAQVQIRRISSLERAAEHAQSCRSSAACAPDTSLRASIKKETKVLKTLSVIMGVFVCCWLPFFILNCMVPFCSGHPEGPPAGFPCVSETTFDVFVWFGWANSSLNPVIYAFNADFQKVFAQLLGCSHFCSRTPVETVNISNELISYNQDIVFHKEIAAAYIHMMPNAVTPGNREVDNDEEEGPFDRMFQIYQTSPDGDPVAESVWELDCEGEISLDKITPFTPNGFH
Method: (§2) 1. Secondary Radioligand Binding Assays
(§3) The detailed experimental protocols for the radioligand and functional receptor assays are available on the NIMH PDSP website at http://pdsp.med.unc.edu/UNC-CH %20Protocol %20Book.pdf.
(§4) Radioligand is diluted to five times the assay concentration (see Table 18) in Standard Binding Buffer. Typically, the assay concentration of radioligand is a value between one half the KD and the KD of a particular radioligand at its target. 50 μl aliquots of radioligand are dispensed into the wells of a 96-well plate containing 100 μl of Standard Binding Buffer. Then, duplicate 50 μl aliquots of the test and reference compound dilutions are added.
(§5) The 250 μl reactions are incubated at room temperature and shielded from light (to prevent photolysis of light-sensitive ligands) for 1.5 hours, then harvested by rapid filtration onto Whatman GF/B glass fiber filters pre-soaked with 0.3% polyethyleneimine using a 96-well Brandel harverster. Four rapid 500 μl washes are performed with chilled Standard Binding Buffer to reduce non-specific binding. Filters are placed in 6 ml scintillation tubes and allowed to dry overnight. The next day, 4 ml of EcoScint scintillation cocktail (National Diagnostics) are added to each tube. The tubes are capped, labeled, and counted by liquid scintillation counting. […] The filter mats are dried, then scintillant is melted onto the filters and the radioactivity retained on the filters is counted in a Microbeta scintillation counter.
(§6) Raw data (dpm) representing total radioligand binding (i.e. specific+non-specific binding) are plotted as a function of the logarithm of the molar concentration of the competitor (i.e. test or reference compound).
(§7) B. Dopamine Receptors: D1, D2, D3, D4, D5 Assay Buffers: Dopamine Binding Buffer (50 mM NaCl, 50 mM HEPES-HCl, 5 mM MgCl2, 0.5 mM EDTA, pH 7.4) Membrane Fraction Source: Transiently or stably transfected cell lines (e.g. HEK293, COS, CHO, NIH3T3)
(§8) The method is carried out in the manner described for the serotonin receptor assay above. Eleven dilutions (5× assay concentration) of the test and reference (see Table 19) compounds are prepared in Dopamine Binding Buffer by serial dilution, as previously described. Radioligand is diluted to five times the assay concentration (see Table 20) in Dopamine Binding Buffer.

[2] = molecular target: Alpha1A adrenergic receptor (Homo sapiens (Human), UniProt P35348); assay: Secondary radioligand binding assay, Alpha1A; parameters: key to Ki Alpha1A: “—” indicates that a binding interaction was not detected
Alpha1A adrenergic receptor, sequence (P35348 whole entry): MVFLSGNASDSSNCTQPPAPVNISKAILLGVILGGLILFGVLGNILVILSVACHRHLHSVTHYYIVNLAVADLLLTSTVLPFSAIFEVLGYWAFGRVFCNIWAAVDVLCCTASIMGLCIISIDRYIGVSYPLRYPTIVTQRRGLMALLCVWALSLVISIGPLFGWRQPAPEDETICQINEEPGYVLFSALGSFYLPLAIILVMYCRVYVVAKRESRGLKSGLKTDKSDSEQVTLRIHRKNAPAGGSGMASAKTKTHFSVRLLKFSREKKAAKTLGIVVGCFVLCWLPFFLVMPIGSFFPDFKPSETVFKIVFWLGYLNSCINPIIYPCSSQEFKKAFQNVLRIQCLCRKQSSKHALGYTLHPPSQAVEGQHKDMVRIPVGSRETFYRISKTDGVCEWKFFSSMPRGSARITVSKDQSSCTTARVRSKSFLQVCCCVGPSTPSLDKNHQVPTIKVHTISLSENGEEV
Description: as §1

5HT2b receptor = 5HT2b receptor (Homo sapiens (Human), UniProt P41595); assay: Secondary radioligand binding assay, 5HT2b; parameters: key to Ki 5HT2b: “—” indicates that a binding interaction was not detected;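 further: competition binding against a radioligand on membranes from transfected cell lines, 1.5 h incubation at room temperature, filter-retained radioactivity counted by liquid scintillation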
5HT2b receptor, sequence (P41595 whole entry): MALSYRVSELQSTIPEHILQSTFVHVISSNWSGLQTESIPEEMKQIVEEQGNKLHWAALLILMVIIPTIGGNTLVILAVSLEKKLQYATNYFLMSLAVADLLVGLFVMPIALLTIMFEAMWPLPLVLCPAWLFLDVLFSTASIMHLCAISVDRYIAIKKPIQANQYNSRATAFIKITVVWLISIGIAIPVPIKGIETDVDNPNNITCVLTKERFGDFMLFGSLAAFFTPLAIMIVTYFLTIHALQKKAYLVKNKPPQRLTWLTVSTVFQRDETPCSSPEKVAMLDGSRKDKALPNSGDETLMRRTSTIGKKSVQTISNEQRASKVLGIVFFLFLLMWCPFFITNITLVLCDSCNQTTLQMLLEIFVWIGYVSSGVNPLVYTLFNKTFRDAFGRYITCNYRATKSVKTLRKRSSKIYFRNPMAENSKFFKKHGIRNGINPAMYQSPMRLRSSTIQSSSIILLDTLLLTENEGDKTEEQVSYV
Method: as §9, §10

dopamine D3 receptor = dopamine D3 receptor (Homo sapiens (Human), UniProt P35462); assay: Secondary radioligand binding assay, D3; parameters: key to Ki D3: “—” indicates that a binding interaction was not detected
dopamine D3 receptor, sequence (P35462 whole entry, species assumed): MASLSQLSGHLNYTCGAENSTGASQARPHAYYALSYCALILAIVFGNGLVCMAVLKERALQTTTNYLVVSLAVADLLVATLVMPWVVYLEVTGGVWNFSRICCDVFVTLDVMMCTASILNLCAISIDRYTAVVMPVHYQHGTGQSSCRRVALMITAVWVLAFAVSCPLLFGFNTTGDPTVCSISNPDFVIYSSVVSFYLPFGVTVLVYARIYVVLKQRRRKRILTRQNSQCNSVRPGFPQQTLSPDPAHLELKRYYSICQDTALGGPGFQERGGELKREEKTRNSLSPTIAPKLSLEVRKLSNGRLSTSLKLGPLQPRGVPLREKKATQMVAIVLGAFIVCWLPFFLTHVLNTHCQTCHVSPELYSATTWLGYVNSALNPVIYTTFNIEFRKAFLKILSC
Method: as §2, §3, §4, §5, §6, §7, §8

dopamine D1 receptor = dopamine D1 receptor (Homo sapiens (Human), UniProt P21728); assay: Secondary radioligand binding assay, D1; parameters: key to Ki D1: “—” indicates that a binding interaction was not detected
dopamine D1 receptor, sequence (P21728 whole entry): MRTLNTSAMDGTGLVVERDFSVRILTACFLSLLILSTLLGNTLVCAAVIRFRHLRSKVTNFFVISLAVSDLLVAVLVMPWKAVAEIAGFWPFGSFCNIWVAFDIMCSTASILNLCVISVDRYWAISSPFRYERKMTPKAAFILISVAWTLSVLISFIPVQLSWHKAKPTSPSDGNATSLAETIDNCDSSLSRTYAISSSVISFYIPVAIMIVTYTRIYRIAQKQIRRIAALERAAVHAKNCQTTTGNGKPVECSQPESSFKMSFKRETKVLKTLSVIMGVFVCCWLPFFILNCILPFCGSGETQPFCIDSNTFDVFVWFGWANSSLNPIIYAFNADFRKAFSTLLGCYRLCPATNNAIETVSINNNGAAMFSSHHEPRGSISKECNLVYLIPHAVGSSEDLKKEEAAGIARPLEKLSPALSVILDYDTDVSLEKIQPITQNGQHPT
Method: as §2, §3, §4, §5, §6, §7, §8

dopamine D2 receptor = dopamine D2 receptor (Homo sapiens (Human), UniProt P14416); assay: Secondary radioligand binding assay, D2; parameters: key to Ki D2: “—” indicates that a binding interaction was not detected
dopamine D2 receptor, sequence (P14416 whole entry, species assumed): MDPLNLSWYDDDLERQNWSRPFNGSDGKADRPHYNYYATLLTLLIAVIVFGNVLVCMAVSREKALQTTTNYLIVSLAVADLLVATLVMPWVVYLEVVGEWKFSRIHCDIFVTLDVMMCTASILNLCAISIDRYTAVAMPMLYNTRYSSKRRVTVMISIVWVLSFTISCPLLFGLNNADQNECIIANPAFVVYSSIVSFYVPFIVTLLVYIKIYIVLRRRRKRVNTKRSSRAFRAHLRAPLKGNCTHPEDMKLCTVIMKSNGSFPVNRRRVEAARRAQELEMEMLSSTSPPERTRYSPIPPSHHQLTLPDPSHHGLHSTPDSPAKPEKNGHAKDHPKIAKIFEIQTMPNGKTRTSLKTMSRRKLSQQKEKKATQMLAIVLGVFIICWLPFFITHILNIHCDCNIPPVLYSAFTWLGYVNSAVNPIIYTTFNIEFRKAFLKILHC
Method: as §2, §3, §4, §5, §6, §7, §8

5HT7 receptor = 5HT7 receptor (Homo sapiens (Human), UniProt P34969); assay: Secondary radioligand binding assay, 5HT7; parameters: key to Ki 5HT7: “—” indicates that a binding interaction was not detected;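 further: competition of test compound with radioligand for binding to membranes from transfected cell lines, 1.5 h incubation at room temperature, filter-bound radioactivity read by liquid scintillation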
5HT7 receptor, sequence (P34969 whole entry): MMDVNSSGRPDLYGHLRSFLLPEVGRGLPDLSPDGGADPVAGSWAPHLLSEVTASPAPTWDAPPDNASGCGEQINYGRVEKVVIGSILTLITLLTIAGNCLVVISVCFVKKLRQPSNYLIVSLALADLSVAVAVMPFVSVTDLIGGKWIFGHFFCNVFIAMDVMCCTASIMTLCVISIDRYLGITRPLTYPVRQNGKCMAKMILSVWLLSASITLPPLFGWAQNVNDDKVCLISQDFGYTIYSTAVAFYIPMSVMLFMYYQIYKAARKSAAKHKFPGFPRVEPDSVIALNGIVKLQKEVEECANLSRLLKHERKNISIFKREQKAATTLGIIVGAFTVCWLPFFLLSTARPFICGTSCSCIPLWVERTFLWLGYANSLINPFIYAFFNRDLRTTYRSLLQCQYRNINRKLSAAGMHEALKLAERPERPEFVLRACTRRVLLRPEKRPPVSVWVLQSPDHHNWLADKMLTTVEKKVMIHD
Method: as §9, §10

In the case of `Cc1ncccc1OC[C@H]1CN(CC(=O)N2c3ccccc3C[C@H]2C)CCO1` [Compound 63], the “Ki 5HT3” value (5HT3 receptor) is reported as “—”, the “Ki Alpha1B” value [1] is reported as “—” and the “Ki 5HT6” value (5HT6 receptor) is reported as “—”. For the same molecule, the “Ki 5HT1d” value (5HT1d receptor) was “—”, the “Ki D5” value (dopamine D5 receptor) was “—” and the “Ki Alpha1A” value [2] was “—”. The “Ki 5HT2b” value (5HT2b receptor) was “—”, the “Ki D3” value (dopamine D3 receptor) was “—” and the “Ki D1” value (dopamine D1 receptor) was “—”. For the same molecule, the “Ki D2” value (dopamine D2 receptor) was “—” and the “Ki 5HT7” value (5HT7 receptor) was “—”.

For `CC1Cc2ccccc2N1C(=O)CN1CCO[C@H](COc2cccc(Cl)c2)C1` (stereo partly shown) [Compound 64], the “Ki 5HT3” value (5HT3 receptor) was “—”, the “Ki Alpha1B” value [1] was “—” and the “Ki 5HT6” value (5HT6 receptor) was “—”. For the same molecule, the “Ki 5HT1d” value (5HT1d receptor) was “—”, the “Ki D5” value (dopamine D5 receptor) was “—” and the “Ki Alpha1A” value [2] was “—”. For the same molecule, the Ki (5HT2b receptor) was 441 nM, the “Ki D3” value (dopamine D3 receptor) was “—” and the “Ki D1” value (dopamine D1 receptor) was “—”. The “Ki D2” value (dopamine D2 receptor) was “—” and the “Ki 5HT7” value (5HT7 receptor) was “—”.

With `CC1Cc2ccccc2N1C(=O)CN1CCO[C@@H](COc2cccc(Cl)c2)C1` (stereo partly shown) [Compound 65] the “Ki 5HT3” value (5HT3 receptor) was “—”, the “Ki Alpha1B” value [1] was “—” and the “Ki 5HT6” value (5HT6 receptor) was “—”. For the same molecule, the “Ki 5HT1d” value (5HT1d receptor) was “—”, the “Ki D5” value (dopamine D5 receptor) was “—” and the “Ki Alpha1A” value [2] was “—”. For the same molecule, the Ki (5HT2b receptor) was 333 nM, the “Ki D3” value (dopamine D3 receptor) was “—” and the “Ki D1” value (dopamine D1 receptor) was “—”. For the same molecule, the “Ki D2” value (dopamine D2 receptor) was “—” and the “Ki 5HT7” value (5HT7 receptor) was “—”.

For `Cc1ccccc1OC[C@H]1CN(CC(=O)N2c3ccccc3CC2C)CCO1` (stereo partly shown) [Compound 66], the “Ki 5HT3” value (5HT3 receptor) was “—”, the “Ki Alpha1B” value [1] was “—” and the “Ki 5HT6” value (5HT6 receptor) was “—”. The “Ki 5HT1d” value (5HT1d receptor) was “—”, the “Ki D5” value (dopamine D5 receptor) was “—” and the “Ki Alpha1A” value [2] was “—”. The Ki (5HT2b receptor) was 770 nM, the “Ki D3” value (dopamine D3 receptor) was “—” and the “Ki D1” value (dopamine D1 receptor) was “—”. For the same molecule, the “Ki D2” value (dopamine D2 receptor) was “—” and the “Ki 5HT7” value (5HT7 receptor) was “—”.

In the case of `C[C@@H]1Cc2ccccc2N1C(=O)CN1CCO[C@@H](COc2ccncc2)C1` [Compound 67], the “Ki 5HT3” value (5HT3 receptor) is reported as “—”, the “Ki Alpha1B” value [1] is reported as “—” and the “Ki 5HT6” value (5HT6 receptor) is reported as “—”. The “Ki 5HT1d” value (5HT1d receptor) was “—”, the “Ki D5” value (dopamine D5 receptor) was “—” and the “Ki Alpha1A” value [2] was “—”. The “Ki 5HT2b” value (5HT2b receptor) was “—”, the “Ki D3” value (dopamine D3 receptor) was “—” and the “Ki D1” value (dopamine D1 receptor) was “—”. For the same molecule, the “Ki D2” value (dopamine D2 receptor) was “—” and the “Ki 5HT7” value (5HT7 receptor) was “—”.

In the case of `CC1Cc2ccccc2N1C(=O)CN1CCO[C@@H](COc2ccncc2)C1` (stereo partly shown) [Compound 68], the “Ki 5HT3” value (5HT3 receptor) is reported as “—”, the “Ki Alpha1B” value [1] is reported as “—” and the “Ki 5HT6” value (5HT6 receptor) is reported as “—”. The “Ki 5HT1d” value (5HT1d receptor) was “—”, the “Ki D5” value (dopamine D5 receptor) was “—” and the “Ki Alpha1A” value [2] was “—”. The “Ki 5HT2b” value (5HT2b receptor) was “—”, the “Ki D3” value (dopamine D3 receptor) was “—” and the “Ki D1” value (dopamine D1 receptor) was “—”. The “Ki D2” value (dopamine D2 receptor) was “—” and the “Ki 5HT7” value (5HT7 receptor) was “—”.

`CC1Cc2ccccc2N1C(=O)CN1CCO[C@@H](COc2ccccn2)C1` (stereo partly shown) [Compound 69] was tested, and the “Ki 5HT3” value (5HT3 receptor) was “—”, the “Ki Alpha1B” value [1] was “—” and the “Ki 5HT6” value (5HT6 receptor) was “—”. For the same molecule, the “Ki 5HT1d” value (5HT1d receptor) was “—”, the “Ki D5” value (dopamine D5 receptor) was “—” and the “Ki Alpha1A” value [2] was “—”. The “Ki 5HT2b” value (5HT2b receptor) was “—”, the “Ki D3” value (dopamine D3 receptor) was “—” and the “Ki D1” value (dopamine D1 receptor) was “—”. The “Ki D2” value (dopamine D2 receptor) was “—” and the “Ki 5HT7” value (5HT7 receptor) was “—”.

With `Cc1ccnc(OC[C@H]2CN(CC(=O)N3c4ccccc4CC3C)CCO2)c1` (stereo partly shown) [Compound 70] the “Ki 5HT3” value (5HT3 receptor) was “—”, the “Ki Alpha1B” value [1] was “—” and the “Ki 5HT6” value (5HT6 receptor) was “—”. For the same molecule, the “Ki 5HT1d” value (5HT1d receptor) was “—”, the “Ki D5” value (dopamine D5 receptor) was “—” and the “Ki Alpha1A” value [2] was “—”. The Ki (5HT2b receptor) was 3460 nM, the “Ki D3” value (dopamine D3 receptor) was “—” and the Ki (dopamine D1 receptor) was over 10000 nM. For the same molecule, the “Ki D2” value (dopamine D2 receptor) was “—” and the “Ki 5HT7” value (5HT7 receptor) was “—”.
